Laboratory results as given in patent US10463644B2, “Uses of sesquiterpene lactone compounds and their derivatives in drugs preparation” (ACCENDATECH, priority 2013, dated 2019).

Tests used:
[1] = system: TNF-α secreted by synoviocyte; experiment: Content of TNF-α in culture supernatant of synoviocyte of RA model rats given test compound; type: in vivo; settings: rat RA model, dose 30 mg/kg.2d; normal control 0.38 ± 0.027, NaCl 0.74 ± 0.098
Source text: (§1) Take Compound 1-50 prepared as per the method according to the present invention and employ the method provided in Reference to prepare model, group drugs and prepare culture supernatant of rat synoviocyte.
(§2) Employ the method provided in Reference to investigate the effects of the test compounds on the synoviocyte to secrete TNF-α and PGE2. Employ the method provided in Reference to investigate the effects of the test compounds on the synoviocyte to secrete IL-1β.
(§3) The experimental data of the test compound 1-50 at a dose of 30 mg/kg.2d as well as the normal control and NaCl group are as follows: […]

cancer stem cells = experiment: Survival rate of cancer stem cells after test compound is added (flow cytometry, Annexin V-FITC/PI, clinical specimen); type: cell-based, patient
Source text: (§4) Take fresh or cryopreserved clinical specimen (acute myelogenous leukemia (AML, marker is CD34^+/CD38^+), chronic myelogenous leukemia (CML, Ph+/CD34+/CXCR4+), chronic lymphocytic leukemia (CLL,CD133+/CD19−/CD38−), skin cancer (CD34+), breast cancer (CD44+/CD24−/ESA+), ovarian cancer (CD44+/CD117+), brain tumor (CD133+) prostate cancer (CD44+/CD24−), head-neck squamous cell carcinoma (CD44+), laryngeal cancer (CD133+), pancreatic cancer (ESA+/CD44+/CD24+), retinoblastoma (ABCG2/ALDH1), Children hepatoblastoma (CD34+/THY1+/c-kit+), liver cancer (CD133+), malignant melanoma (CD133+), colorectal cancer (EpCAM^high/CD44+), colon adenocarcinoma (CD44^high), glioma (ABCG-2/BCRP1), gastrointestinal tumor (ABCG-2/BCRP1), nasopharynx cancer (ABCG2), brain glioma (Dlk-1/Pref-1), gastric cancer (CD45+), lung adenocarcinoma (Sca-1/CD45-/Pecam-/CD34+), lung cancer (CD133+CD34+CD44+)) of patient. Take the acute myelogenous leukemia as the example, conduct density gradient centrifugation with Ficoll and take out the middle mononuclear cells, re-suspend it with serum-free IMDM after centrifuged. Adjust the concentration of cells into 1×10^6/mL and lay 24-well plate with 1 mL in each well, and then treat 18 hours with the compound to select with corresponding concentration. Collect the cells and centrifuge them at 1500 rps for 8 minutes, re-suspend the precipitation with […], mark the antibodies related to leukemia stem cell, avoid light to incubate 30 minutes at room temperature and then centrifuge it at 1500 rps, then wash away the unbound antibody CD34^+CD38^+. Re-suspend it with 100 μl 1× Binding Buffer and add respectively 5 μl Annexin V-FITC and PI, then avoid light to incubate 15 minutes before add 200 μl 1× Binding Buffer, then use flow cytometry to examine the marked apoptosis within one hour.

[2] = system: IL-1β secreted by synoviocyte; experiment: Content of IL-1β in culture supernatant of synoviocyte of RA model rats given test compound; type: in vivo; settings: rat RA model, dose 30 mg/kg.2d; normal control 0.16 ± 0.034, NaCl 0.49 ± 0.136
Source text: as §1, §2, §3

normal cells = experiment: Survival rate of normal cells after test compound is added (flow cytometry, Annexin V-FITC/PI); type: cell-based
Source text: as §4

cancer cells = experiment: Survival rate of cancer cells after test compound is added (flow cytometry, Annexin V-FITC/PI, clinical specimen); type: cell-based, patient
Source text: as §4

[3] = system: PGE2 secreted by synoviocyte; experiment: Content of PGE2 in culture supernatant of synoviocyte of RA model rats given test compound; type: in vivo; settings: rat RA model, dose 30 mg/kg.2d; normal control 8.34 ± 1.29, NaCl 32.44 ± 10.32
Source text: as §1, §2, §3

[4] = Children hepatoblastoma, 10.0 μM
[5] = Children hepatoblastoma, 20.0 μM
[6] = Gastrointestinal tumor, 10.0 μM
[7] = Gastrointestinal tumor, 20.0 μM
[8] = Head and neck squamous cell carcinomas, 10.0 μM
[9] = Head and neck squamous cell carcinomas, 20.0 μM

CN(C)C[C@@H]1C(=O)O[C@H]2[C@H]1CCC1(CC1)[C@@H]1CCC3(CC3)[C@H]21.Cl [Compound 28]
91%: Survival rate (%) All cells (Stem cells and ordinary cells) (cancer cells; Brain tumor, 10.0 μM) | Survival rate (%) All cells (Stem cells and ordinary cells) (cancer cells; CLL, 10.0 μM) | Survival rate (%) All cells (Stem cells and ordinary cells) (cancer cells; Liver cancer, 10.0 μM) | Survival rate (%) All cells (Stem cells and ordinary cells) (cancer cells; Lung adenocarcinoma, 10.0 μM) | Survival rate (%) All cells (Stem cells and ordinary cells) (cancer cells; Malignant melanoma, 10.0 μM) | Survival rate (%) All cells (Stem cells and ordinary cells) (cancer cells; Prostate cancer, 10.0 μM) | Survival rate (%) All cells (Stem cells and ordinary cells) (cancer cells; Skin cancer, 10.0 μM)
18.92 ± 1.98 ng/mL: Content of PGE2 in culture supernatant of synoviocyte (x ± s) [3]
90%: Survival rate (%) All cells (Stem cells and ordinary cells) (cancer cells; Retinoblastoma, 10.0 μM)
84%: Survival rate (%) Stem cells (cancer stem cells; Malignant melanoma, 10.0 μM) | Survival rate (%) Stem cells (cancer stem cells; Prostate cancer, 10.0 μM) | Survival rate (%) Stem cells (cancer stem cells; Retinoblastoma, 10.0 μM) | Survival rate (%) Stem cells (cancer stem cells; Skin cancer, 10.0 μM)
72%: Survival rate (%) Stem cells (cancer stem cells; Gastric cancer, 20.0 μM)
77%: Survival rate (%) Stem cells (cancer stem cells; CML, 20.0 μM) | Survival rate (%) Stem cells (cancer stem cells; [5]) | Survival rate (%) Stem cells (cancer stem cells; Laryngeal cancer, 20.0 μM) | Survival rate (%) Stem cells (cancer stem cells; Nasopharynx cancer, 20.0 μM)
96%: Survival rate (%) All cells (Stem cells and ordinary cells) (normal cells; 10.0 μM)
0.31 ± 0.067 ng/mL: Content of IL-1β in culture supernatant of synoviocyte (x ± s) [2]
86%: Survival rate (%) Stem cells (cancer stem cells; Pancreatic cancer, 10.0 μM) | Survival rate (%) All cells (Stem cells and ordinary cells) (cancer cells; Brain glioma, 20.0 μM) | Survival rate (%) All cells (Stem cells and ordinary cells) (cancer cells; Glioma, 20.0 μM)
85%: Survival rate (%) Stem cells (cancer stem cells; CML, 10.0 μM) | Survival rate (%) Stem cells (cancer stem cells; [4]) | Survival rate (%) Stem cells (cancer stem cells; Glioma, 10.0 μM) | Survival rate (%) Stem cells (cancer stem cells; Laryngeal cancer, 10.0 μM) | Survival rate (%) Stem cells (cancer stem cells; Nasopharynx cancer, 10.0 μM) | Survival rate (%) Stem cells (cancer stem cells; Ovarian cancer, 10.0 μM) | Survival rate (%) All cells (Stem cells and ordinary cells) (cancer cells; Colon adenocarcinoma, 20.0 μM) | Survival rate (%) All cells (Stem cells and ordinary cells) (cancer cells; Ovarian cancer, 20.0 μM) | Survival rate (%) All cells (Stem cells and ordinary cells) (cancer cells; Retinoblastoma, 20.0 μM)
73%: Survival rate (%) Stem cells (cancer stem cells; Brain tumor, 20.0 μM) | Survival rate (%) Stem cells (cancer stem cells; CLL, 20.0 μM) | Survival rate (%) Stem cells (cancer stem cells; Liver cancer, 20.0 μM)
76%: Survival rate (%) Stem cells (cancer stem cells; AML, 20.0 μM) | Survival rate (%) Stem cells (cancer stem cells; Brain glioma, 20.0 μM) | Survival rate (%) Stem cells (cancer stem cells; [7]) | Survival rate (%) Stem cells (cancer stem cells; Lung cancer, 20.0 μM)
74%: Survival rate (%) Stem cells (cancer stem cells; Colon adenocarcinoma, 20.0 μM)
78%: Survival rate (%) Stem cells (cancer stem cells; Malignant melanoma, 20.0 μM) | Survival rate (%) Stem cells (cancer stem cells; Pancreatic cancer, 20.0 μM) | Survival rate (%) Stem cells (cancer stem cells; Prostate cancer, 20.0 μM) | Survival rate (%) Stem cells (cancer stem cells; Skin cancer, 20.0 μM)
79%: Survival rate (%) Stem cells (cancer stem cells; Gastric cancer, 10.0 μM) | Survival rate (%) Stem cells (cancer stem cells; Glioma, 20.0 μM) | Survival rate (%) Stem cells (cancer stem cells; Ovarian cancer, 20.0 μM)
75%: Survival rate (%) Stem cells (cancer stem cells; Breast cancer, 20.0 μM) | Survival rate (%) Stem cells (cancer stem cells; Colorectal cancer, 20.0 μM) | Survival rate (%) Stem cells (cancer stem cells; [9])
89%: Survival rate (%) All cells (Stem cells and ordinary cells) (cancer cells; Brain glioma, 10.0 μM) | Survival rate (%) All cells (Stem cells and ordinary cells) (cancer cells; CML, 20.0 μM) | Survival rate (%) All cells (Stem cells and ordinary cells) (cancer cells; [5]) | Survival rate (%) All cells (Stem cells and ordinary cells) (cancer cells; [7]) | Survival rate (%) All cells (Stem cells and ordinary cells) (cancer cells; Laryngeal cancer, 20.0 μM) | Survival rate (%) All cells (Stem cells and ordinary cells) (cancer cells; Lung adenocarcinoma, 20.0 μM) | Survival rate (%) All cells (Stem cells and ordinary cells) (cancer cells; Nasopharynx cancer, 20.0 μM)
95%: Survival rate (%) All cells (Stem cells and ordinary cells) (normal cells; 20.0 μM)
94%: Survival rate (%) Stem cells (normal cells; 10.0 μM) | Survival rate (%) All cells (Stem cells and ordinary cells) (cancer cells; AML, 10.0 μM) | Survival rate (%) All cells (Stem cells and ordinary cells) (cancer cells; Lung cancer, 10.0 μM)
82%: Survival rate (%) Stem cells (cancer stem cells; Brain glioma, 10.0 μM) | Survival rate (%) Stem cells (cancer stem cells; Brain tumor, 10.0 μM) | Survival rate (%) Stem cells (cancer stem cells; CLL, 10.0 μM) | Survival rate (%) Stem cells (cancer stem cells; Colon adenocarcinoma, 10.0 μM) | Survival rate (%) Stem cells (cancer stem cells; [6]) | Survival rate (%) Stem cells (cancer stem cells; Liver cancer, 10.0 μM)
87%: Survival rate (%) Stem cells (cancer stem cells; AML, 10.0 μM) | Survival rate (%) Stem cells (cancer stem cells; Lung cancer, 10.0 μM) | Survival rate (%) All cells (Stem cells and ordinary cells) (cancer cells; AML, 20.0 μM) | Survival rate (%) All cells (Stem cells and ordinary cells) (cancer cells; Brain tumor, 20.0 μM) | Survival rate (%) All cells (Stem cells and ordinary cells) (cancer cells; Breast cancer, 10.0 μM) | Survival rate (%) All cells (Stem cells and ordinary cells) (cancer cells; CLL, 20.0 μM) | Survival rate (%) All cells (Stem cells and ordinary cells) (cancer cells; Colorectal cancer, 10.0 μM) | Survival rate (%) All cells (Stem cells and ordinary cells) (cancer cells; [8]) | Survival rate (%) All cells (Stem cells and ordinary cells) (cancer cells; Liver cancer, 20.0 μM) | Survival rate (%) All cells (Stem cells and ordinary cells) (cancer cells; Lung cancer, 20.0 μM)
80%: Survival rate (%) Stem cells (cancer stem cells; Retinoblastoma, 20.0 μM)
83%: Survival rate (%) All cells (Stem cells and ordinary cells) (cancer cells; Breast cancer, 20.0 μM) | Survival rate (%) All cells (Stem cells and ordinary cells) (cancer cells; Colorectal cancer, 20.0 μM) | Survival rate (%) All cells (Stem cells and ordinary cells) (cancer cells; [9])
88%: Survival rate (%) Stem cells (cancer stem cells; Lung adenocarcinoma, 10.0 μM) | Survival rate (%) All cells (Stem cells and ordinary cells) (cancer cells; Colon adenocarcinoma, 10.0 μM) | Survival rate (%) All cells (Stem cells and ordinary cells) (cancer cells; Gastric cancer, 10.0 μM) | Survival rate (%) All cells (Stem cells and ordinary cells) (cancer cells; [6]) | Survival rate (%) All cells (Stem cells and ordinary cells) (cancer cells; Malignant melanoma, 20.0 μM) | Survival rate (%) All cells (Stem cells and ordinary cells) (cancer cells; Ovarian cancer, 10.0 μM) | Survival rate (%) All cells (Stem cells and ordinary cells) (cancer cells; Prostate cancer, 20.0 μM) | Survival rate (%) All cells (Stem cells and ordinary cells) (cancer cells; Skin cancer, 20.0 μM)
93%: Survival rate (%) All cells (Stem cells and ordinary cells) (cancer cells; Glioma, 10.0 μM) | Survival rate (%) All cells (Stem cells and ordinary cells) (cancer cells; Pancreatic cancer, 10.0 μM)
0.47 ± 0.056 ng/mL: Content of TNF-α in culture supernatant of synoviocyte (x ± s) [1]
92%: Survival rate (%) Stem cells (normal cells; 20.0 μM) | Survival rate (%) All cells (Stem cells and ordinary cells) (cancer cells; CML, 10.0 μM) | Survival rate (%) All cells (Stem cells and ordinary cells) (cancer cells; [4]) | Survival rate (%) All cells (Stem cells and ordinary cells) (cancer cells; Laryngeal cancer, 10.0 μM) | Survival rate (%) All cells (Stem cells and ordinary cells) (cancer cells; Nasopharynx cancer, 10.0 μM) | Survival rate (%) All cells (Stem cells and ordinary cells) (cancer cells; Pancreatic cancer, 20.0 μM)
81%: Survival rate (%) Stem cells (cancer stem cells; Breast cancer, 10.0 μM) | Survival rate (%) Stem cells (cancer stem cells; Colorectal cancer, 10.0 μM) | Survival rate (%) Stem cells (cancer stem cells; [8]) | Survival rate (%) Stem cells (cancer stem cells; Lung adenocarcinoma, 20.0 μM) | Survival rate (%) All cells (Stem cells and ordinary cells) (cancer cells; Gastric cancer, 20.0 μM)
